pIC50: −log10 of the molar value.
Biological target: T1, CB1 receptor (Homo sapiens, UniProt P21554)
T1 construct: expressed in transfected cells
Test: [35S]-GTPγS binding assay on membranes from cells stably transfected with the CB1 gene, inhibition of CP55940 (EC80) stimulated binding
Type: biochemical
Settings: concentration giving half maximal inhibition of GTPγS binding; EC80 of agonist CP55940
Protocol: 10 μg of membranes prepared from cells stably transfected with the CB1 gene were suspended in 200 μl of 100 mM NaCl, 5 mM MgCl2, 1 mM EDTA, 50 mM HEPES (pH 7.4), 1 mM DTT, 0.1% BSA and 100 μM GDP. To this was added an EC80 concentration of agonist (CP55940), the required concentration of test compound and 0.1 μCi [^35S]-GTPγS. The reaction was allowed to proceed at 30° C. for 45 min. Samples were then transferred on to GF/B filters using a cell harvester and washed with wash buffer (50 mM Tris (pH 7.4), 5 mM MgCl2, […]). Filters were then covered with scintillant and counted for the amount of [^35S]-GTPγS retained by the filter.
Activity is measured in the absence of all ligands (minimum activity) or in the presence of an EC80 concentration of CP55940 (maximum activity). These activities are set as 0% and 100% activity respectively. At various concentrations of novel ligand, activity is calculated as a percentage of the maximum activity and plotted. The data are fitted using the equation y=A+((B−A)/1+((C/x)UD)) and the IC50 value determined as the concentration required to give half maximal inhibition of GTPγS binding under the conditions used.

T1 sequence (P21554 whole entry): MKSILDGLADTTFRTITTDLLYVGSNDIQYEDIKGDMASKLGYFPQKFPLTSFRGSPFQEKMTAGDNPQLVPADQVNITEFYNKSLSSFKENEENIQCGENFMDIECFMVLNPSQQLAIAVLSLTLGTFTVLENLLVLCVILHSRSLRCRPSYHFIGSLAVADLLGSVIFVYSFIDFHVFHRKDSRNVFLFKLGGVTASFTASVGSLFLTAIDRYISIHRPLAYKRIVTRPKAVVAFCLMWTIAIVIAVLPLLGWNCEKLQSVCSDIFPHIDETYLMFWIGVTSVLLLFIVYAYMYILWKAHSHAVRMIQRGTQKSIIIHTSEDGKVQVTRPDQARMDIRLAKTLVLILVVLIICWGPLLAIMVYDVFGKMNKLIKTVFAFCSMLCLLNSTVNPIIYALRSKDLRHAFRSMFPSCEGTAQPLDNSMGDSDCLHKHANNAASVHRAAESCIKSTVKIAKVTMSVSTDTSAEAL

For `Cc1ccc(NC(=O)c2nn(-c3ccc(Cl)cc3Cl)c(-c3ccc(OS(=O)(=O)CCC(F)(F)F)cc3)c2C)nc1` [Example 10, 3,3,3-Trifluoro-propane-1-sulfonic acid 4-[2-(2,4-dichlorophenyl)-4-methyl-5-(5-methyl-pyridin-2-ylcarbamoyl)-2H-pyrazol-3-yl]phenyl ester], the pIC50 was 8.71.

Source: patent US20080287517A1, “Pyrazole Derivatives as Cb1 Modulators” (priority 2005, published 2008)
